Experimental data published in PMC3929086, “Targeted manipulation of the sortilin–progranulin axis rescues progranulin haploinsufficiency” (Human Molecular Genetics, 2013).
Each block holds one molecule with its values, some of them ahead of it.

Legend:
[1] = tested on: SORT1-mediated PGRN endocytosis; assay: Quantitative DyL-rPGRN endocytosis assay in COS-1^SORT1 cells; assay type: cell-based, human; settings: COS-1^SORT1, 5 μM binder pre-incubated 1 h with rPGRN, 1 h endocytosis
Procedure: COS-1 cells seeded on a 96-well black plate 1 day before were transfected with pCMV-SORT1 vector. After 24 h, cells were treated with fluorescence-tagged rPGRN (DyL-rPGRN) pre-labeled by DyLight™ 594 antibody labeling kit (Thermo Scientific). The DyL-rPGRN was diluted in OptiMEM to tested concentrations and incubated with the cells for 1 h for endocytosis. The cells were then washed with cold PBS and then fixed by 4% paraformaldehyde. After washing twice, each well was filled with PBS prior scanning. The total PGRN fluorescent signal from the cells was obtained by a plate reader with 593/618 nm (Ex/Em) settings. The endocytosis signal was normalized by the total nuclei signal obtained by staining with a Hoechst 33342 dye. Baseline endocytosis signal was defined as a signal from medium-only-treated cells, whereas the 100% endocytosis level was set as the signal obtained from cells treated with 50 nM DyL-rPGRN. For testing SORT1 ligands, DyL-rPGRN and the peptide were added simultaneously to the cells. For testing of PGRN binders, the binder was pre-incubated with DyL-rPGRN for 1 h before adding to the cells. For qualitative analysis, images from each well were captured by BD Pathway 855 system using a 20× magnification setting.

[2] = molecular target: PGRN588–593 peptide (Homo sapiens, UniProt P28799); assay: Epic biochemical binding assay (resonant waveguide grating); settings: PGRN588–593 peptide immobilized; PBS with 5% DMSO; 30 min binding; n = 4
Excerpt: page 6: SUPPLEMENTARY METHODS AND RESULTS Epic(R) biochemical assay and compound library screen Essentially, the Epic® is a spectrophotometric reader that uses a resonant waveguide grating detection mechanism to detect biochemical interactions (Fig.5A). In brief, the waveguide grating biosensor in each well of the 384-well assay plate intercepts broadband light and measures changes in resonant wavelengths (in picometers, pm) when a ligand binds to the target protein immobilized on the biosensor. To identify chemical binders of the PGRN588-593 peptide, we immobilized the peptide onto the biosensor surface of Epic® assay plates using an amine- coupling method, and screened 4,800 compounds. For immobilization, 150 µg/ml peptide diluted in a 20 mM sodium acetate buffer, pH 5, was added to the assay plate to incubate for overnight at 4 °C. The plate was then washed in binding buffer (PBS with 5% DMSO) for three times and equilibrated in the binding buffer for 6 h in the Epic® carousal. During the equilibration period, compounds from the library stock plate (CNS-set compound library from Chembridge®) were diluted to 50 µM in binding buffer. Each compound was tested in quadruplicate. After the equilibration, a Baseline Reading was acquired by the Epic® spectrophotometer. […] After mixing and a 30 min ‘binding’ period, a Final Reading was acquired. […]

[3] = tested on: PGRN(588–593) peptide; assay: UV-absorption titration of BVFP with PGRN(588–593) peptide; assay type: binding, human; settings: 20 μM BVFP, PGRN(588–593) peptide titrated
Procedure: Stock solutions of compound BVFP (20 mM) and PGRN(588–593) peptide (12.96 mM) were prepared in DMSO and water, respectively. For the UV absorption experiment, both components were diluted to give final concentrations of 20 μM BVFP and 324 μM peptide. The interaction between BVFP and the PGRN(588–593) peptide was monitored by scanning over the UV absorbance range of 200–800 nm on a Cary 3 Bio UV–visible spectrophotometer (Varian), as a small amount of KKGRN peptide (0.1 equivalence/1 μl per addition) was titrated into the 20 μM BVFP sample. In addition to baseline correction with DMSO, a control titration experiment using water in place of the PGRN(588–593) peptide was performed under identical conditions in order to correct for potential spectral changes owing to sample dilution.

[4] = tested on: SORT1–PGRN interaction; assay: MSD-based SORT1–PGRN interaction assay; assay type: biochemical, human; settings: BVFP 20 and 200 μM pre-incubated 30 min with 200 nM N-rP
Procedure: M17 cells were transfected with pCMV-SORT1-Flag for 48 h. Then, the cell lysate was harvested by the same method used in the co-immunoprecipitation assay. Expression of SORT1-Flag protein was confirmed by western blot. MSD plate was first coated with the Flag M2 antibody (Sigma). Following an overnight incubation at 4°C, the plate was blocked for 2 h and then washed prior to addition of 5 µg/well of lysate protein containing SORT1-Flag protein. After overnight incubation at 4°C, it was then washed and added with 200 nM of either N-6His- or C-6His-tagged rPGRN pre-incubated with either vehicle, 20 µM or 200 µM of BVFP, for 30 min at room temperature. Then plate was then incubated for 2 h, washed and incubated with a mixture of PCDGF antibody and a SULFO-TAG-labeled anti-rabbit IgG antibody for 2 h. After final wash, the plate was read by the MSD Sector Imager 2400.

[5] = tested on: PGRN endocytosis in WT-hESCs; assay: DyL-rPGRN endocytosis in wild-type hESCs; assay type: cell-based; settings: Homo sapiens; WT-hESC, BVFP, same conditions as COS-1^SORT1 (5 μM)
Excerpt: (§1) To determine whether BVFP, when bound to PGRN, disrupts full-length PGRN and SORT1 binding, we devised a SORT1-dependent rPGRN precipitation assay utilizing the Meso-Scale Discovery (MSD) system (Supplementary Material, Fig. S4A and B). […] To include a higher-affinity PGRN588–593 motif binder as a positive control, an antibody targeting the motif, PGRN-CT antibody, was made for validating the approach (Fig. 5F). […] First, we found SORT1 was abundantly expressed in the wild-type hESCs (Fig. 5H). Similar to the results from COS-1^SORT1 cells, BVFP and PGRN-CT antibody inhibited endocytosis of DyL-rPGRN by 22 and 39%, respectively, under the same experimental conditions in wild-type hESCs (Fig. 5I left).
(§2) COS-1 cells seeded on a 96-well black plate 1 day before were transfected with pCMV-SORT1 vector. After 24 h, cells were treated with fluorescence-tagged rPGRN (DyL-rPGRN) pre-labeled by DyLight™ 594 antibody labeling kit (Thermo Scientific). The DyL-rPGRN was diluted in OptiMEM to tested concentrations and incubated with the cells for 1 h for endocytosis. The cells were then washed with cold PBS and then fixed by 4% paraformaldehyde. After washing twice, each well was filled with PBS prior scanning. The total PGRN fluorescent signal from the cells was obtained by a plate reader with 593/618 nm (Ex/Em) settings. […]

[6] = tested on: PGRN endocytosis in SORT1^KO-hESCs; assay: DyL-rPGRN endocytosis in SORT1^KO-hESCs; assay type: cell-based, human; settings: SORT1^KO-hESC
Excerpt: as §1, §2

[7] = tested on: GRN expression; settings: HDAC inhibitor; cited from earlier work
Excerpt: While new strategies designed to upregulate PGRN levels have emerged, challenges remain in terms of limiting off-target effects. […] However, because HDAC and V-ATPase inhibitors can potentially affect a wide-range of genes at transcriptional and po ...

[8] = tested on: elastase; assay: Elastase digestion of rPGRN in cell culture media; assay type: in vitro ADME; settings: in vitro reaction with EL in culture media; compared with WT rPGRN, western blot
Procedure: PGRN, SORT1, GFP, GAPDH and β-actin proteins were analyzed using 10% Tris–glycine polyacrylamide gel by SDS–PAGE. After electrophoresis, proteins on gel were transblotted to PVDF membranes followed by standard immunoblotting protocols.

[9] = tested on: SORT1; assay: PGRN endocytosis in M17 cells overexpressing SORT1; assay type: cell-based; settings: M17 cells overexpressing SORT1, after EL reaction
Procedure: M17 cells seeded in 12-well culture plates (western blot) or on glass coverslips in 24-well culture plate (immunofluorescence) were transfected with pEGFP-N1 (Clontech) or pCMV-SORT1 (OriGene) vectors. Next day, the cells were changed into serum-free medium 1 h before addition of rPGRN (500 ng/ml) and treated for 60 min. The cells were then put on ice and washed with cold PBS. For western blot, cells were lysed in cold M-Per protein extraction buffer followed by standard procedures as mentioned. For immunofluorescence analyses, cells were fixed in 4% paraformaldehyde solution followed by PBS washes. The cells were then incubated in blocking buffer (PBS, 5% goat serum, 0.1% saponin) for 1 h at room temperature followed by incubation in primary antibody overnight at 4°C. The cells were incubated with secondary antibodies (1:1000) for 1 h at room temperature. The coverslips were then mounted onto slides and waited overnight before analysis. Image analysis was performed by Zeiss LSM 510 META confocal microscope using 60× magnification setting.

Kd [2]: 20 µM
isosbestic point [3]: 313 nm
Molecule: O=c1nc(C=Cc2cccc(Br)c2)cc(C(F)(F)F)[nH]1 [BVFP, 4-[2-(3-bromophenyl)vinyl]-6-(trifluoromethyl)-2(1H)-pyrimidinone]
inhibition of DyL-rPGRN endocytosis [1]: 23%
UV-absorption change upon peptide titration [3]: shift in the ultraviolet(UV)-absorption spectra of BVFP and distinct changes of absorption intensities
inhibition of rPGRN binding to immobilized SORT1 [4]: dose-dependent inhibition of rPGRN binding to immobilized SORT1
inhibition at 5 µM [5]: 22%
effect on DyL-rPGRN endocytosis [6]: no effect on DyL-rPGRN endocytosis

Molecule: O=C(CCCCCCC(=O)Nc1ccccc1)NO [suberoylanilide hydroxamic acid]
GRN expression [7]: enhancer of GRN expression

B1: A588G-rPGRN: rPGRN with Ala-to-Gly mutation at the A588 elastase cleavage site (protein)
chain: TRCPDGQFCPVACCLDPGGASYSCCRPLLDKWPTTLSRHLGGPCQVDAHCSAGHSCIFTVSGTSSCCPFPEAVACGDGHHCCPRGFHCSADGRSCFQRSGNNSVGAIQCPDSQFECPDFSTCCVMVDGSWGCCPMPQASCCEDRVHCCPHGAFCDLVHTRCITPTGTHPLAKKLPAQRTNRAVALSSSVMCPDARSRCPDGSTCCELPSGKYGCCPMPNATCCSDHLHCCPQDTVCDLIQSKCLSKENATTDLLTKLPAHTVGDVKCDMEVSCPDGYTCCRLQSGAWGCCPFTQAVCCEDHIHCCPAGFTCDTQKGTCEQGPHQVPWMEKAPAHLSLPDPQALKRDVPCDNVSSCPSSDTCCQLTSGEWGCCPIPEAVCCSDHQHCCPQGYTCVAEGQCQRGSEIVAGLEKMPARRASLSHPRDIGCDQHTSCPVGQTCCPSLGGSWACCQLPHAVCCEDRQHCCPAGYTCNVKARSCEKEVVSAQPATFLARSPHVGVKDVECGEGHFCHDNQTCCRDNRQGWACCPYRQGVCCADRRHCCPAGFRCAARGTKCLRREAPRWDAPLRDPGLRQLL
modifications: left off: His6, end not stated, state not stated
notes: rPGRN with Ala-to-Gly mutation at the A588 elastase cleavage site
resistance to elastase (residual full-length protein in medium) [8]: more resistant to EL activity
uptake after elastase treatment [9]: endocytosed by cells to a similar extent compared with no EL control
